Source: patent US8431593B2, “Heteroaryl amide derivatives” (H. Lundbeck A/S, priority 2006, dated 2013)

target: T1, P2X7 receptor (Homo sapiens, UniProt Q99572); assay: P2X7 calcium mobilization assay, high throughput, antagonist activity (Example 4A); format: cell-based; settings: not given
T1 construct: host or cells: SH-SY5Y
T1 sequence (Q99572 1-595): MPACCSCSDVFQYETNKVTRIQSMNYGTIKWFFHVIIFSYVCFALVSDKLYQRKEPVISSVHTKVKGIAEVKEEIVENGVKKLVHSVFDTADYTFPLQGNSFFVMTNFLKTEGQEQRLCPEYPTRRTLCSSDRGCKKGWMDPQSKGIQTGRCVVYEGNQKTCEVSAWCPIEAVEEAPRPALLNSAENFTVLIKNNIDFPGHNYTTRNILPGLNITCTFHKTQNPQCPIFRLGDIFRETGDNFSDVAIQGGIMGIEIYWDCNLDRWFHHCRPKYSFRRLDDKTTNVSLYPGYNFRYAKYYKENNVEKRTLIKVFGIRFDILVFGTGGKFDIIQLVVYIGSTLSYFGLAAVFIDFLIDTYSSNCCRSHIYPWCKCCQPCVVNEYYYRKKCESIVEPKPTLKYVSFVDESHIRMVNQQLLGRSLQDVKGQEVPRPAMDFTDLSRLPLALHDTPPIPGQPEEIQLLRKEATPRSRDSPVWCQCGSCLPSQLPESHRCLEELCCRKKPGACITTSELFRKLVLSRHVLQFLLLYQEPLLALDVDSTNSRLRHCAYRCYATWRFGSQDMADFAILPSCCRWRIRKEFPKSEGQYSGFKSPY
How it was run: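 100,000 cells/well, plated day -1. Dye 1 h → rinse → compound 1 h, RT → FLIPR^TETRA Ca2+ mobilization. Max RFU minus mean negative control (no agonist); mean agonist-well max as positive control.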

Compound	IC50 [µM]
CC(C)CNCc1cn2c(C(=O)NCC34CC5CC(CC(C5)C3)C4)cccc2n1 [Compound 12, N-(adamantan-1-ylmethyl)-2-[(isobutyl-amino)methyl]imi-dazo[1,2-a]pyridine-5-carboxamide]	< 2

same assay, conditions: 50% decrease in the fluorescence response of cells exposed to 80 μM 2′(3′)-O-(4-benzoyl-benzoyl)adenosine 5′-triphosphate; Example 4A; read-out: IC50

IC50 [µM]	Compound
< 2	CC1(C)[C@@H]2CC[C@@H](CNC(=O)c3cccc4nc(CC(=O)N5CCC[C@H]5CN)cn34)[C@H]1C2 [Compound 587, 2-{2-[(2S)-2-(aminomethyl)pyrrolidin-1-yl]-2-oxoethyl}-N-{[(1R,2R,5R)-6,6-dimethylbicyclo [3.1.1]hept-2-yl]methyl}imidazo[1,2-a]pyridine-5-carboxamide]
< 2	CC(C)[C@H]1CN(C(=O)Cc2cn3c(C(=O)NC[C@@H]4CC[C@@H]5C[C@H]4C5(C)C)cccc3n2)CCN1 [Compound 562, N-{[(1R,2R,5R)-6,6-dimethylbicyclo[3.1.1]hept-2-yl]methyl}-2-{2-[(3S)-3-isopropylpiperazin-1-yl]-2-oxoethyl}imidazo[1,2-a]pyridine-5-carboxamide]
< 2	C[C@H]1CN(C(=O)Cc2cn3c(C(=O)NC[C@@H]4CC[C@@H]5C[C@H]4C5(C)C)cccc3n2)CCN1 [Compound 563, N-{[(1R,2R,5R)-6,6-dimethylbicyclo[3.1.1]hept-2-yl]methyl}-2-{2-[(3S)-3-methylpiperazin-1-yl]-2-oxoethyl}imidazo[1,2-a]pyridine-5-carboxamide]
< 2	CC1CCN(C(=O)c2cn3c(C(=O)NC[C@@H]4CC[C@H]5C[C@@H]4C5(C)C)cccc3n2)CC1 [Compound 463, N-{[(1S,2R,5S)-6,6-dimethylbicyclo[3.1.1]hept-2-yl]methyl}-2-[(4-methylpiperidin-1-yl)carbonyl]imidazo[l, 2-a]pyridine-5-carboxamide]

same assay, conditions: 50% decrease in the fluorescence response of cells exposed to 80 μM of 2′(3′)-O-(4-benzoyl-benzoyl)adenosine 5′-triphosphate; Example 4A; read-out: IC50

IC50 [µM]	Compound
< 2	CCN1CCCC1CNC(=O)c1cn2c(C(=O)NCC34CC5CC(CC(C5)C3)C4)cccc2n1 (stereo not drawn) [Compound 643, 5-N-(adamantan-1-ylmethyl)-2-N-[(1-ethylpyrrolidin-2-yl)methyl]imidazo[1,2-a]pyridine-2,5-dicarboxamide]
< 2	N[C@@H]1CCCN(C(=O)c2cn3c(C(=O)NCC45CC6CC(CC(C6)C4)C5)cccc3n2)C1 [Compound 724, N-(adamantan-1-ylmethyl)-2-{[(3R)-3-aminopiperidin-1-yl]carbonyl}imidazo[1,2-a]pyridine-5-carboxamide]
< 2	N[C@@H]1CCN(Cc2cn3c(C(=O)NCC(CC4CCCCC4)c4ccccc4)cccc3n2)C1 (stereo partly drawn) [Compound 787, 2-[(3-aminopyrrolidin-1-yl)methyl]-N-(3-cyclohexyl-2-phenylpropyl) imidazo[1,2-a] pyridine-5-carboxamide]

same assay, conditions: 50% decrease in the fluorescence response of cells exposed to 80 μM of 2′(3′)-O-(4-benzoyl-benzoyl)adenosine 5′-triphosphate; determined as in Example 4A; read-out: IC50

IC50 [µM]	Compound
< 2	CCCC(CNC(=O)c1cccc2nc(CC(=O)N[C@@H]3CCNC3)cn12)c1ccc(Cl)cc1 (stereo partly drawn) [Compound 951, N-[2-(4-chlorophenyl)pentyl]-2-{2-oxo-2-[(3R)-pyrrolidin-3-ylamino]ethyl} imidazo[1,2-a] pyridine-5-carboxamide]
< 2	N[C@@H]1CCN(Cc2cn3c(C(=O)NCC4(c5ccc(Cl)cc5)CCCCC4)cccc3n2)C1 [Compound 821, 2-{[(3R)-3-aminopyrrolidin-1-yl]methyl}-N-{[1-(4-chlorophenyl)cyclohexyl]methyl} imidazo[1,2-a]pyridine-5-carboxamide]
< 2	CCOC(=O)C(Cc1ccccc1Cl)c1cn2c(C(=O)NCC34CC5CC(CC(C5)C3)C4)cccc2n1 (stereo not drawn) [Compound 840, ethyl 2-{5-[(adamantan-1-ylmethyl)carbamoyl]imidazo[1,2-a]pyridin-2-yl}-3-(2-chlorophenyl) propanoate]
< 2	CCOC(=O)C(Cc1ccccn1)c1cn2c(C(=O)NCC(CC(C)C)c3ccc(Cl)cc3)cccc2n1 (stereo not drawn) [Compound 930, ethyl 2-(5-{[2-(4-chlorophenyl)-4-methylpentyl]carbamoyl}imidazo[1,2-a]pyridin-2-yl)-3-pyridin-2-ylpropanoate]
< 2	NC(=O)COc1cccc(NC(=O)Cc2cn3c(C(=O)NCC4CCCCCC4)cccc3n2)c1 [Compound 958, 2-(2-{[3-(2-amino-2-oxoethoxy)phenyl]amino}-2-oxoethyl)-N-(cycloheptylmethyl) imidazo[1,2-a] pyridine-5-carboxamide]

Compound	IC50 [µM]
CN(C)C1CCCN(C(=O)Cc2cn3c(C(=O)NCC4(c5ccc(Cl)cc5)CCCCC4)cccc3n2)C1 (stereo not drawn) [Compound 894, N-{[1-(4-chlorophenyl)cyclohexyl]methyl}-2-{2-[3-(dimethylamino)piperidin-1-yl]-2-oxoethyl} imidazo[1,2-a] pyridine-5-carboxamide]	< 2

same assay, conditions: P2X7 calcium mobilization, Example 4A; 50% decrease in the fluorescence response of cells exposed to 80 μM of (2′(3′)-O-(4-benzoyl-benzoyl)adenosine 5′-triphosephate); read-out: IC50

IC50 [µM]	Compound
< 2	O=C(NCC1(c2ccc(Cl)cc2)CCCCC1)c1cccc2nc(CN3CCCC3)cn12 [Compound 1047, N-{[1-(4-chlorophenyl)cyclohexyl]methyl}-2-(pyrrolidin-1-ylmethyl) imidazo[1,2-a]pyridine-5-carboxamide]
< 2	CC(C)CC(CNC(=O)c1cccc2nc(CN3CCC3)cn12)c1ccc(Cl)cc1 (stereo not drawn) [Compound 1034, 2-(azetidin-1-ylmethyl)-N-[2-(4-chlorophenyl)-4-methylpentyl] imidazo[1,2-a] pyridine-5-carboxamide]

same assay, conditions: SH-SY5Y cells; 50% decrease in fluorescence response to 80 μM BzATP; read-out: IC50

IC50 [µM]	Compound
< 2	CC(C)CNC(=O)c1cn2c(C(=O)NCC34CC5CC(CC(C5)C3)C4)cccc2n1 [Compound 73, 5-N-(adamantan-1-ylmethyl)-- isobutylimidazo[1,2-a]pyridine-2,5-dicarboxamide]
< 2	CS(=O)(=O)C1CCN(C(=O)c2cn3c(C(=O)NCC45CC6CC(CC(C6)C4)C5)cccc3n2)CC1 [Compound 96, N-(adamantan-1-ylmethyl)-2-{[4-(methyl-sulfonyl)piperidin-1-yl]carbonyl}imidazo[1,2-a]pyridine-5-carboxamide]
< 2	Nc1ccn(Cc2cn3c(C(=O)NCC45CC6CC(CC(C6)C4)C5)cccc3n2)n1 [Compound 208, N-(adamantan-1-ylmethyl)-2-[(3-amino-1H-pyrazol-1-yl)methyl]imidazo[1,2-a]pyridine-5-carboxamide]
< 2	CS(=O)(=O)C1CCN(C(=O)Cc2cn3c(C(=O)NCC45CC6CC(CC(C6)C4)C5)cccc3n2)CC1 [Compound 43]

same assay, conditions: fluorescence response of cells exposed to 80 μM 2′(3′)-O-(4-benzoyl-benzoyl)adenosine 5′-triphosphate; Example 4A; read-out: IC50

IC50 [µM]	Compound
< 2	CN(C)C(=O)NCCc1cn2c(C(=O)NCC34CC5CC(CC(C5)C3)C4)cccc2n1 [Compound 268, N-(adamantan-1-ylmethyl)-2-{2-[(dimethylcarbamoyl)amino]ethyl} imidazo[1,2-a] pyridine-5-carboxamide]
< 2	CN(C)[S@SP3](=O)(=O)N1CCN(C(=O)c2cn3c(NC(=O)CC45CC6CC(CC(C6)C4)C5)cccc3n2)CC1 [Compound 400, 2-adamantan-1-yl-N-(2-{[4-(dimethylsulfamoyl)piperazin-1-yl]carbonyl}imidazo [1,2-a]pyridin-5-yl)acetamide]
< 2	CC1(C)[C@H]2CC[C@@H](CNC(=O)c3cccc4nc(C(=O)N5CCOC(CN)C5)cn34)[C@@H]1C2 (stereo partly drawn) [Compound 336, 2-{[2-(aminomethyl)morpholin-4-yl]carbonyl}-N-{[(1S,2R,5S)-6,6-dimethylbicyclo[3.1.1]hept-2-yl]methyl}imidazo[1,2-a]pyridine-5-carboxamide]
< 2	CC(C)CC(CNC(=O)c1cccc2nc(CC(=O)NCC3CC3)cn12)c1ccccc1 (stereo not drawn) [Compound 222, 2-{2-[(cyclopropylmethyl)amino]-2-oxoethyl}-N-(4-methyl-2-phenylpentyl) imidazo [1,2-a]pyridine-5-carboxamide]
